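Cells were grown in 96-well plates and exposed to each compound for 48 hours at five concentrations; endpoints were interpolated linearly between bracketing concentrations, or set to the highest concentration if not reached. At the GI50, growth is halved. TGI: total growth inhibition.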

One assay deals with MCF7 breast. The experiment in a line: NCI-60 cell line screen, 48 h.
For `N=C(N)c1ccc(-c2ccc(-c3cc(Cl)cc(Cl)c3)o2)nc1`, the GI50 is 1.73 µM and the TGI was determined as 3.6 µM.
On to `CCOC(=O)CSc1nc(N)c2c(-c3ccc(OC)c(OC)c3)c3c(nc2n1)CCCC3`, for which the TGI was > 100 µM.
On to `CNC(=O)OC(C)CN1c2ccccc2Sc2ccc(Cl)cc21` (centres undefined), for which the TGI is > 10 µM.
For `O=C(CCCCCCC(=O)Nc1ccc(N(CCCl)CCCl)cc1)NO`, the GI50 is 1.48 µM and the TGI is 24.3 µM.
As for `CN1CC[C@@]2(c3cccc(O)c3)CC(=O)/C(=C/c3ccccc3)[C@H]1C2`, the TGI is 10.3 µM.
The same measure, in the same setting: under `O=C(N/N=C(/c1ccccc1)C(F)(F)F)c1ccncc1` stands > 100 µM; under `O=S(=O)(O)c1ccc2cccc(N=Nc3c(O)ccc4ccccc34)c2c1`, > 100 µM.
Turning to `COc1ccc2nc(-c3ccc(-c4noc(-c5cc(OC)c(OC)c(OC)c5)n4)cc3)[nH]c2c1`, the GI50 was 1.08 µM and the TGI came out at 22.1 µM.
For `COc1ccc(/C(=C2/O[C@@H]([C@H]3COC(C)(C)O3)[C@H]3OC(C)(C)O[C@@H]23)c2cc(OC)c(OC)c(OC)c2)cc1O`, the GI50 is 12.3 µM and the TGI was > 100 µM.
For `Cn1c(=O)c2c(nc(-n3nc(-c4ccc(Cl)cc4)cc3N)n2C)n(C)c1=O`, the TGI was > 100 µM.
As to `CCS(=O)(=O)Nc1ccc(Nc2c3ccccc3nc3ccccc23)c(OC)c1`, the TGI was found to be 6.15 µM.
Still for that read-out and setting: under `Cc1nc(N)nc(N)c1-c1ccc(Cl)c(Cl)c1` stands > 100 µM; under `Cc1cccc2nc3c(C(=O)NCCN(C)C)cccc3cc12`, 9.44 µM; under `C[C@]12CC[C@@H]3c4ccc(OP(=O)(O)O)cc4CC[C@H]3[C@@H]1CCC2=O`, > 100 µM.
Still for that read-out and setting: under `CCSCCC(N)C(=O)O` (centres undefined) stands > 100 µM; under `COc1ccc2nc(N/N=C/C(C)=N/Nc3cc(C)c4cc(OC)ccc4n3)cc(C)c2c1`, 29.8 µM.

For another assay, the system named is UACC-62 melanoma. The experiment in a line: NCI-60 cell line screen, 48 h.
With `CCN(CC)CC(C)Nc1ccc([N+](=O)[O-])c2sc3ccccc3c(=O)c12` (centres undefined), the GI50 is 1.09 µM and the TGI was 2.52 µM.
Take `N=C(N)c1ccc(-c2ccc(-c3cc(Cl)cc(Cl)c3)o2)nc1`: the GI50 was 1.78 µM and the TGI is 3.36 µM.
Take `CCOC(=O)CSc1nc(N)c2c(-c3ccc(OC)c(OC)c3)c3c(nc2n1)CCCC3`: the TGI was > 100 µM.
In the case of `CNC(=O)OC(C)CN1c2ccccc2Sc2ccc(Cl)cc21` (centres undefined), the TGI was > 10 µM.
`O=C(CCCCCCC(=O)Nc1ccc(N(CCCl)CCCl)cc1)NO`: the GI50 was 1.09 µM and the TGI turned out to be 5.09 µM.
For `O=C(N/N=C(/c1ccccc1)C(F)(F)F)c1ccncc1`, the TGI is > 100 µM.
With `ONc1ncnc2nc[nH]c12`, the TGI was > 100 µM.
Turning to `CCCc1[nH]c(SCCCCCCCCSc2nc(-c3ccc(F)cc3)c(CCC)[nH]2)nc1-c1ccc(F)cc1`, the TGI was > 100 µM.
On to `O=S(=O)(O)c1ccc2cccc(N=Nc3c(O)ccc4ccccc34)c2c1`, for which the TGI is > 100 µM.
Turning to `COc1ccc2nc(-c3ccc(-c4noc(-c5cc(OC)c(OC)c(OC)c5)n4)cc3)[nH]c2c1`, the GI50 is 14 µM and the TGI was 33.4 µM.
Taken in the same sequence, the figures for `COc1ccc(/C(=C2/O[C@@H]([C@H]3COC(C)(C)O3)[C@H]3OC(C)(C)O[C@@H]23)c2cc(OC)c(OC)c(OC)c2)cc1O` were 22.9 µM and 57.6 µM.
As for `Cn1c(=O)c2c(nc(-n3nc(-c4ccc(Cl)cc4)cc3N)n2C)n(C)c1=O`, the TGI is > 100 µM.
For `N=c1c2c(C(N)=O)cn(C3OC(CO)C(O)C3O)c2ncn1O` (centres undefined), the TGI worked out at 0.283 µM.
Still for that read-out and setting: under `CCS(=O)(=O)Nc1ccc(Nc2c3ccccc3nc3ccccc23)c(OC)c1` stands 4.02 µM.
Take `Cc1nc(N)nc(N)c1-c1ccc(Cl)c(Cl)c1`: the TGI is > 51.1 µM.
Compound `Cc1cccc2nc3c(C(=O)NCCN(C)C)cccc3cc12` gave a TGI of 3.38 µM.
The same measure, in the same setting: the same measure for `C[C@]12CC[C@@H]3c4ccc(OP(=O)(O)O)cc4CC[C@H]3[C@@H]1CCC2=O`: > 100 µM; for `CCSCCC(N)C(=O)O` (centres undefined): > 100 µM.
`COc1ccc2nc(N/N=C/C(C)=N/Nc3cc(C)c4cc(OC)ccc4n3)cc(C)c2c1` returned a TGI of 64.6 µM.
Regarding `CN(C)CC(=O)Nc1ccc(Cn2nnc3c2C(=O)c2nnn(Cc4ccc(NC(=O)CN(C)C)cc4)c2C3=O)cc1`, the GI50 was 0.201 µM and the TGI came to 0.432 µM.

Another assay has as its system COLO 205 colon. Nature of the assay: NCI-60 cell line screen, 48 h.
`CCN(CC)CC(C)Nc1ccc([N+](=O)[O-])c2sc3ccccc3c(=O)c12` (centres undefined): the GI50 is 0.941 µM and the TGI was determined as 3.35 µM.
The corresponding values for `N=C(N)c1ccc(-c2ccc(-c3cc(Cl)cc(Cl)c3)o2)nc1` are 2.01 µM and 3.78 µM.
As for `CCOC(=O)CSc1nc(N)c2c(-c3ccc(OC)c(OC)c3)c3c(nc2n1)CCCC3`, the TGI is > 100 µM.
The same measure, in the same setting: the same measure for `CNC(=O)OC(C)CN1c2ccccc2Sc2ccc(Cl)cc21` (centres undefined): > 10 µM.
In the case of `O=C(CCCCCCC(=O)Nc1ccc(N(CCCl)CCCl)cc1)NO`, the GI50 was 4.4 µM and the TGI came to 19.9 µM.
The compound `CN1CC[C@@]2(c3cccc(O)c3)CC(=O)/C(=C/c3ccccc3)[C@H]1C2` showed a TGI of 30.3 µM.
Regarding `O=C(N/N=C(/c1ccccc1)C(F)(F)F)c1ccncc1`, the TGI was > 100 µM.
The same measure, in the same setting: under `ONc1ncnc2nc[nH]c12` stands > 100 µM; under `CCCc1[nH]c(SCCCCCCCCSc2nc(-c3ccc(F)cc3)c(CCC)[nH]2)nc1-c1ccc(F)cc1`, > 100 µM.
Same read-out and setting: under `O=S(=O)(O)c1ccc2cccc(N=Nc3c(O)ccc4ccccc34)c2c1` stands > 100 µM.

These data come from PubChem BioAssay (NCI).
